Laboratory results as given in publication PMC10777855, “Pharmacological validation of dihydrofolate reductase as a drug target in Mycobacterium abscessus” (Antimicrobial Agents and Chemotherapy, 2023).

Each compound was assayed against T1, M. abscessus DHFR (recombinant) (Mycobacteroides abscessus, UniProt B1MD46) (assay: NADPH absorbance decrease at […] nm (DHFR kit CS0340)). Details: read-out: IC50 (μM) ^ b.
T1 construct: gene MAB_3090c; E. coli codon-optimised gene in pET28a (NcoI/XhoI), N-terminal His6-tag, expressed in E. coli BL21(DE3), Ni-NTA purified; tag removal not mentioned
T1 sequence (B1MD46 1-163): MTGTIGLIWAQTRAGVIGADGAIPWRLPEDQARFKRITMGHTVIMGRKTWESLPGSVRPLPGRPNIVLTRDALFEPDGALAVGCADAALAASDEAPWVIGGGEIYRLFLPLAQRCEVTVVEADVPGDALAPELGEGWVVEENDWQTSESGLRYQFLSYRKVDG
Format: biochemical

Q: With `COc1cc(NCc2ccc3nc(N)nc(N)c3c2C)cc(OC)c1OC` [Trimetrexate] as the compound, how does the IC50 read?
A: 0.005 µM

Q: For `COc1cc(Cc2cnc(N)nc2N)c2c(c1OC)OC(C1CC1)C=C2` (stereo not shown) [Iclaprim], which IC50 is on record?
A: 0.6 µM

Q: Which IC50 does the source give for `CCc1nc(N)nc(N)c1-c1ccc(Cl)cc1` [Pyrimethamine] here?
A: 4.7 µM

Q: With `C#CCC(Cc1cnc2nc(N)nc(N)c2n1)c1ccc(C(=O)N[C@@H](CCC(=O)O)C(=O)O)cc1` (stereo partly shown) [Pralatrexate] as the compound, how does the IC50 read?
A: 0.21 µM

Q: How did the IC50 turn out when `COc1cc(Cc2cnc(N)nc2N)cc(OC)c1Br` [Brodimoprim] was run?
A: 1.7 µM

Q: `CC1(C)N=C(N)N=C(N)N1OCCCOc1cc(Cl)c(Cl)cc1Cl` [WR99210] was tested. Which IC50 did it give?
A: 0.016 µM

Q: How did the IC50 turn out when `N#Cc1ccc(Cn2ccc3c4c(N)nc(N)nc4ccc32)cc1` [PQD-1] was run?
A: 0.0025 µM

Q: `COCCOc1c(OC)cc(Cc2cnc(N)nc2N)cc1OC` [Tetroxoprim] was tested. Which IC50 did it give?
A: 20 µM

Q: `COc1cc(Cc2cnc(N)nc2N)cc(OC)c1OC` [Trimethoprim] was tested. Which IC50 did it give?
A: 25 µM

Q: How did the IC50 turn out when `CN(Cc1cnc2nc(N)nc(N)c2n1)c1ccc(C(=O)N[C@@H](CCC(=O)O)C(=O)O)cc1` [Methotrexate] was run?
A: 0.016 µM

Same assay, conditions: read-out: IC50 ^ b

Q: With `Nc1nc(N)c2c(ccc3c2ccn3Cc2cccc(Cl)c2)n1` [PQD-9] as the compound, how does the IC50 read?
A: 0.03 µM

Q: For `Cc1cccc(Cn2ccc3c4c(N)nc(N)nc4ccc32)n1` [PQD-4], which IC50 is on record?
A: 0.015 µM

Q: `CC(C)Nc1nc(N)c2c(ccc3c2ccn3Cc2ccc(C(C)C)cc2)n1` [PQD-10] was tested. Which IC50 did it give?
A: 4.1 µM

Q: `COC(=O)c1ccc(Cn2ccc3c4c(N)nc(N)nc4ccc32)cc1` [PQD-3] was tested. Which IC50 did it give?
A: 0.015 µM

Q: `Cc1ccccc1Cn1ccc2c3c(N)nc(N)nc3ccc21` [PQD-6] was tested. Which IC50 did it give?
A: 0.015 µM

Q: For `Nc1nc(N)c2c(ccc3c2ccn3Cc2ccc3ccccc3c2)n1` [PQD-7], which IC50 is on record?
A: 0.015 µM

Q: For `N#Cc1ccccc1Cn1ccc2c3c(N)nc(N)nc3ccc21` [PQD-5], which IC50 is on record?
A: 0.016 µM

Q: `N#Cc1cccc(Cn2ccc3c4c(N)nc(N)nc4ccc32)c1` [PQD-2] was tested. Which IC50 did it give?
A: 0.0034 µM

Q: Which IC50 does the source give for `Nc1nc(N)c2c(ccc3c2ccn3Cc2ccc(F)cc2)n1` [PQD-8] here?
A: 0.02 µM
